# In the supplement of paper PMC11451515:
# Assays:
# Experiment in all cases: AUC of viability dose-response curve (% viability x log10 dose units); higher = less sensitive
# Conditions in all cases: 48 h
# NOMO1 = tested on: NOMO1
# How it was run: (§1)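 Seeding of medium-adapted leukemia cells was at 500 or 1000 cells/well in 1536-well plates, followed by 48 h at 37°C with library compounds in DMSO at 11 threefold doses from 47 μM to 0.79 nM. CellTiter-Glo One luminescence was normalised per plate to DMSO and cell-free wells and fitted as a four-parameter log-logistic function of log10 dose. Area under the curve was integrated by trapezoidal rule, with curves exceeding full viability scaled and curves failing quality control removed.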
# P12-Ichikawa = tested on: P12-Ichikawa
# How it was run: as §1
# SEM cells = tested on: SEM cells
# How it was run: as §1
# [1] = RPMI 5 mM glucose + 10% dialyzed FBS
SMILES,AUC of viability dose-response curve (NOMO1; HPLM + 10% dialyzed FBS),AUC of viability dose-response curve (NOMO1; RPMI 5 mM glucose + 10% FBS),AUC of viability dose-response curve (NOMO1; [1]),AUC of viability dose-response curve (P12-Ichikawa; HPLM + 10% dialyzed FBS),AUC of viability dose-response curve (P12-Ichikawa; RPMI 5 mM glucose + 10% FBS),AUC of viability dose-response curve (P12-Ichikawa; [1]),AUC of viability dose-response curve (SEM cells; HPLM + 10% dialyzed FBS),AUC of viability dose-response curve (SEM cells; RPMI 5 mM glucose + 10% FBS),AUC of viability dose-response curve (SEM cells; [1])
C[C@@H]1CN(Cc2ccc(F)cc2)[C@@H](C)CN1C(=O)c1cc2c(C(=O)C(=O)N(C)C)cn(C)c2cc1Cl,467,474,475,471,472,471,462,413,449
N#CC(c1ccnc(NCCc2cccnc2)n1)c1nc2ccccc2s1 (stereo not drawn),469,475,450,467,473,470,454,448,468
NC(=O)Nc1sc(-c2ccc(F)cc2)cc1C(N)=O,415,436,415,419,421,414,425,304,402
O=C1CCC[C@@H]2[C@H]3CCCN4CCC[C@@H](CN12)[C@@H]34,–,–,–,426,396,389,324,390,347
CC(NC(C)(C)C)C(=O)c1cccc(Cl)c1 (stereo not drawn),448,476,456,470,473,472,444,433,436
N[S+](=O)([O-])c1cc2c(cc1Cl)NC(C(Cl)Cl)N[S+]2(=O)[O-] (stereo not drawn),450,453,442,456,459,467,431,450,447
O=C([O-])C[C@H](O)C[C@H](O)/C=C/c1c(C2CC2)nc2ccccc2c1-c1ccc(F)cc1,443,450,440,407,375,390,395,418,413
CC[N+](CC)(CC)CCOc1cccc(OCC[N+](CC)(CC)CC)c1OCC[N+](CC)(CC)CC,400,439,445,451,455,456,423,463,477
N#Cc1ccc(Oc2ccc3c(c2)COB3O)cc1,413,463,466,425,463,460,458,458,461
CCc1cc(C(N)=S)ccn1,459,434,460,448,463,452,407,434,447
CCn1c(-c2nonc2N)nc2c(C#CC(C)(C)O)ncc(OC[C@H]3CCCNC3)c21,360,388,390,358,282,313,341,397,345
[O-]C(=O)C/1=N/C(=O)NC(=O)N1,444,434,408,441,427,420,423,412,438
CN1CCN(c2c(F)cc3c(=O)c(C(=O)O)cn(CCF)c3c2F)CC1,466,447,461,459,457,445,439,458,466
CC[C@]12CC[C@H]3[C@@H](CCC/4=C/C(=O)CC[C@H]34)[C@@H]1CC[C@@]2(O)C#C,–,–,–,413,405,386,417,448,452
CCOc1cc2ncc(C#N)c(Nc3ccc(F)c(Cl)c3)c2cc1NC(=O)/C=C/CN(C)C,323,385,353,312,338,320,321,300,312
CC\12CCC(=O)\C=C1CCC3C2CCC4(C)C3CCC4(O)C#C (stereo not drawn),456,430,428,442,452,421,452,461,458
OC1=CC2=C(C=C1)C(=O)\C(=C(O2)\C3=CC(=C(O)C=C3)O)O,–,–,–,430,420,406,456,456,418
C[C@H]1C[C@H]2[C@@H]3CC[C@](O)(C(=O)CO)[C@@]3(C)C[C@H](O)[C@@H]2[C@@]\4(C)/C=C\C(=O)\C=C14,456,444,451,378,341,314,315,357,352
C[C@]12Cc3cn[nH]c3C[C@@H]1CC[C@@H]1[C@@H]2CC[C@@]2(C)[C@H]1CC[C@]2(C)O,458,467,442,459,466,463,414,473,473
CN1C(=O)C(=C\C2=C1N=C(NC3=CC=CC(=C3)C(O)=O)N=C2)/C4=C(Cl)C=CC=C4Cl,465,467,461,468,465,463,439,405,426
N\C1=N\C2=C(N=C[N]2COCCO)C(=O)N1,464,461,467,472,465,473,451,460,431
COc1cc(Nc2c(C#N)cnc3cc(OCCCN4CCN(C)CC4)c(OC)cc23)c(Cl)cc1Cl,370,397,407,372,382,382,–,–,–
OC1=CC=C(C=C1)\C2=C\OC3=C(C(=CC(=C3)O)O)C2=O,459,455,473,466,471,468,452,395,433
COc1ccc(C(=O)c2c(C)n(CCN3CCOCC3)c3ccccc23)cc1,466,439,430,456,463,434,459,400,449

SMILES,AUC of viability dose-response curve (NOMO1; HPLM + 10% dialyzed FBS),AUC of viability dose-response curve (NOMO1; RPMI 5 mM glucose + 10% FBS),AUC of viability dose-response curve (NOMO1; [1]),AUC of viability dose-response curve (P12-Ichikawa; HPLM + 10% dialyzed FBS),AUC of viability dose-response curve (P12-Ichikawa; RPMI 5 mM glucose + 10% FBS),AUC of viability dose-response curve (P12-Ichikawa; [1]),AUC of viability dose-response curve (SEM cells; HPLM + 10% dialyzed FBS),AUC of viability dose-response curve (SEM cells; RPMI 5 mM glucose + 10% FBS),AUC of viability dose-response curve (SEM cells; [1])
Cc1c(-c2cccc3c(CCCOc4cccc5ccccc45)c(C(=O)O)n(Cc4cccnc4)c23)c(COc2ccc(N3CCN([S+](=O)([O-])N(C)C)CC3)cc2)nn1C,407,416,423,427,421,418,415,456,423
Cc1ccccc1C(OCCN(C)C)c1ccccc1 (stereo not drawn),462,468,457,446,476,469,453,463,465
C[C@@H](NCCCc1cccc(C(F)(F)F)c1)c1cccc2ccccc12,455,418,447,455,455,439,467,458,445
NC[C@@H]1O[C@H](O[C@H]2[C@@H](O)[C@H](O[C@@H]3[C@@H](O)[C@H](N)C[C@H](N)[C@H]3O[C@H]3O[C@H](CN)[C@@H](O)[C@H](O)[C@H]3N)O[C@@H]2CO)[C@H](N)[C@@H](O)[C@@H]1O.O=S(=O)(O)O.O=S(=O)(O)O.O=S(=O)(O)O,468,465,428,473,467,461,476,463,458
c1ccc2c(Cc3c[nH]c4ccccc34)c[nH]c2c1,440,434,444,434,420,417,385,396,376
CCN1C[C@H](C)[N]2C(=C(O)C3=C2\C(=N/N(CC4=CC=C(F)C(=C4)Cl)C3=O)C(=O)NC)C1=O,408,442,427,458,460,459,440,409,443
CN(C)C1=CC(=CC=C1)C\2=C\3C(=O)N(NC3=C/C(=O)N2C)C4=CC=CC=C4Cl,292,314,314,312,327,342,322,317,311
O=S(=O)([O-])CCS.[Na+],367,341,351,379,383,407,452,443,405
Cc1cc(OCCC[S+](C)(=O)[O-])cc(C)c1-c1cccc(COc2ccc3c(c2)OC[C@H]3CC(=O)O)c1,466,458,434,460,428,430,454,448,445
O=[N+]([O-])c1ncc[nH]1,416,402,400,418,395,414,402,444,459
O=C(O)CCCCC(CCSCc1ccccc1)SCc1ccccc1 (stereo not drawn),446,457,451,433,462,457,463,458,467
CCN(CC)CCOc1ccc(Cc2ccccc2)cc1,403,431,464,417,446,409,442,380,409
CCOC(=O)C(C#N)C\1C2=CC(=CC=C2O\C(=C1C(=O)OCC)N)Br (stereo not drawn),445,449,447,467,452,463,450,462,421
O=C(Nc1nnc(-c2ccco2)o1)c1cc(-c2ccccc2)nc2ccccc12,393,455,451,379,448,451,442,348,443
CC(C)=CCC/C(C)=C/CC/C(C)=C/CSc1ccccc1C(=O)O,393,432,395,402,366,390,348,355,374
NC(=O)[C@H]1CCS[C@@H]2C[C@]3(CCCN3C(=O)Cc3ccc(NC(=O)COc4ccc(Cl)cc4Cl)cc3)C(=O)N12,356,378,409,316,343,362,376,325,362
CCC(C)N1\N=C/N(C1=O)C2=CC=C(C=C2)N3CCN(CC3)C4=CC=C(OC[C@H]5CO[C@@](C[N]6C=NC=N6)(O5)C7=CC=C(Cl)C=C7Cl)C=C4 (stereo partly drawn),448,456,454,458,463,458,468,472,452
O=C1\C=C/C=C2/[C@H]3CNC[C@H](C3)CN12,447,458,464,457,459,459,462,466,456
C[C@H](CCC(=O)O)[C@H]1CCC2C3C[C@H](O)[C@@H]4C[C@H](O)CC[C@]4(C)C3CC[C@@]21C (stereo partly drawn),449,458,459,454,450,463,452,452,469
Clc1cccc(-n2nnnc2NCc2ccccc2Oc2ccccn2)c1Cl,472,472,470,458,467,441,439,470,474
COc1ccc(C(CN(C)C)C2(O)CCCCC2)cc1 (stereo not drawn),–,–,–,459,405,461,476,475,424
C=C1C(=O)[C@@]23C(CC[C@@H]1[C@H]2O)[C@@]12CO[C@]3(O)[C@@H](O)[C@@H]1C(C)(C)CC[C@@H]2O (stereo partly drawn),435,444,451,409,394,389,–,–,–
O=C(Nc1c[nH]nc1-c1nc2cc(CN3CCOCC3)ccc2[nH]1)NC1CC1,–,–,–,270,282,304,219,202,199
Cc1nc2cc(C(=O)N3CCC4(CC3)CC(=O)c3c(cnn3C(C)C)C4)ccc2[nH]1,465,471,455,457,469,458,–,–,–
